In brackets after ≈: the same amount, converted by molar mass.
How the values were obtained:
[1] = Half life in human liver microsomes at 1 uM in presence of NADPH by LC-MS method; assay type: ADME
Cytochrome P450 3A4 = Cytochrome P450 3A4 (Homo sapiens, UniProt P08684); assay: Inhibition of CYP3A4 (unknown origin) using BFC substrate after 30 mins by fluorescence assay; assay type: ADME
[2] = Cmax in SCID mouse at 50 mg/kg, ip after 8 hrs by LCMS/MS method; assay type: ADME, organism-based; set-up: dose 50 mg/kg, route intraperitoneal; conditions: in vivo
[3] = Protein binding in plasma (unknown origin); assay type: ADME, cell-free; conditions: read-out: PPB (converted)
MCF7 = assay: Cytotoxicity against human MCF7 cells after 5 days by SRB assay; assay type: functional; conditions: MCF7, 120 h
[4] = biological target: Vascular endothelial growth factor receptor 2 (Homo sapiens, UniProt P35968); assay: Inhibition of KDR (unknown origin) by FRET-based homogeneous assay
Chain of Vascular endothelial growth factor receptor 2 (P35968 whole entry): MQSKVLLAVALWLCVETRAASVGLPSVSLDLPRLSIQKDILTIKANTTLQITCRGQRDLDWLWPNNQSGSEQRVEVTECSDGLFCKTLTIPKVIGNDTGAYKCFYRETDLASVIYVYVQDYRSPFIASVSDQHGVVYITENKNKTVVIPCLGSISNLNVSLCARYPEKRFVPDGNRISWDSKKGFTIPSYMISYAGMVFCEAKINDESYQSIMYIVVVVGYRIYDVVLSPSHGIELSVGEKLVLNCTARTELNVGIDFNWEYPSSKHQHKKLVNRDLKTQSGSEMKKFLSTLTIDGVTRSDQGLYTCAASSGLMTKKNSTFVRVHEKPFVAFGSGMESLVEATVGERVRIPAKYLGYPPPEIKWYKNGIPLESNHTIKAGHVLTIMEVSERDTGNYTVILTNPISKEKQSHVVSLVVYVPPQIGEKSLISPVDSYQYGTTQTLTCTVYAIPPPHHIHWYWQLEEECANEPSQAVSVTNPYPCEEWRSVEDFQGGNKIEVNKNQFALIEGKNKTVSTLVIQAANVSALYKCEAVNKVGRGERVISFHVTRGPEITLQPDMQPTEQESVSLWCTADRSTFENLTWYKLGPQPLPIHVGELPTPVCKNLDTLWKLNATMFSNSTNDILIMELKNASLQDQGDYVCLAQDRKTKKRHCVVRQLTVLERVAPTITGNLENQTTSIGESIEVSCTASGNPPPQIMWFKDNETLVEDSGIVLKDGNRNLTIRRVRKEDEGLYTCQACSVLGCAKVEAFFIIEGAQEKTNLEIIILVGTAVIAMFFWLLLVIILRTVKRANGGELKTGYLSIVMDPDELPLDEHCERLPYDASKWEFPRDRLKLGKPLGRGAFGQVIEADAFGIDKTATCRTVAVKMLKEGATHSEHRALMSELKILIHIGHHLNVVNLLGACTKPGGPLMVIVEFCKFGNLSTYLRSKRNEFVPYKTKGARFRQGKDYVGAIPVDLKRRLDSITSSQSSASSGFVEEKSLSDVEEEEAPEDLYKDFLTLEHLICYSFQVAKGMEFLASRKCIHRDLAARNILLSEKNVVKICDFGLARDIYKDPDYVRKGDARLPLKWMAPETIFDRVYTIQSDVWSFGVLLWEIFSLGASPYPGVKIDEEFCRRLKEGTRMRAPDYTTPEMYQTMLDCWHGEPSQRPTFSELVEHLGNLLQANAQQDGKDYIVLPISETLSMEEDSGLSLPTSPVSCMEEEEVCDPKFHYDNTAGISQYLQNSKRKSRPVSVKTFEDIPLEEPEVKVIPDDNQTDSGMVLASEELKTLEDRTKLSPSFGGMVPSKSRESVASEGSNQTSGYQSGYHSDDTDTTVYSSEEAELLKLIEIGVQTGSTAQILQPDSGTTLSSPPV

Cytochrome P450 2C19 = Cytochrome P450 2C19 (Homo sapiens, UniProt P33261); assay: Inhibition of CYP2C19 (unknown origin) using MFC substrate after 30 mins by fluorescence assay; assay type: ADME
Chain of Cytochrome P450 2C19 (P33261 whole entry): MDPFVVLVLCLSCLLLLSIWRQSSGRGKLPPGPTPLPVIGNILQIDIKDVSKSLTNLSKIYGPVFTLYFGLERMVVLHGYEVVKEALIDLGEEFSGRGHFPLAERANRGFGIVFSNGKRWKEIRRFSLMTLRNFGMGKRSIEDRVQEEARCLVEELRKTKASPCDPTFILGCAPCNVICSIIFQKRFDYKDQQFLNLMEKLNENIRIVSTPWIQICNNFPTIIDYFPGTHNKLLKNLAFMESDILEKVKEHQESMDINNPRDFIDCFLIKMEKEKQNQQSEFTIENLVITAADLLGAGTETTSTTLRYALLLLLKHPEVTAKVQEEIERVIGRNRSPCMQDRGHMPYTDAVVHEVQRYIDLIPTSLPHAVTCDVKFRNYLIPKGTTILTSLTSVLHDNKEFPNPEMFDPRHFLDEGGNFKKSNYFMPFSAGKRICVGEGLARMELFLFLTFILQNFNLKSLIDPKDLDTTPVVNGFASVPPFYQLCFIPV

Cytochrome P450 1A2 = biological target: T1, Cytochrome P450 1A2 (Homo sapiens, UniProt P05177); assay: Inhibition of CYP1A2 (unknown origin) using CEC substrate after 15 mins by fluorescence assay; assay type: ADME
T1 sequence (P05177 whole entry): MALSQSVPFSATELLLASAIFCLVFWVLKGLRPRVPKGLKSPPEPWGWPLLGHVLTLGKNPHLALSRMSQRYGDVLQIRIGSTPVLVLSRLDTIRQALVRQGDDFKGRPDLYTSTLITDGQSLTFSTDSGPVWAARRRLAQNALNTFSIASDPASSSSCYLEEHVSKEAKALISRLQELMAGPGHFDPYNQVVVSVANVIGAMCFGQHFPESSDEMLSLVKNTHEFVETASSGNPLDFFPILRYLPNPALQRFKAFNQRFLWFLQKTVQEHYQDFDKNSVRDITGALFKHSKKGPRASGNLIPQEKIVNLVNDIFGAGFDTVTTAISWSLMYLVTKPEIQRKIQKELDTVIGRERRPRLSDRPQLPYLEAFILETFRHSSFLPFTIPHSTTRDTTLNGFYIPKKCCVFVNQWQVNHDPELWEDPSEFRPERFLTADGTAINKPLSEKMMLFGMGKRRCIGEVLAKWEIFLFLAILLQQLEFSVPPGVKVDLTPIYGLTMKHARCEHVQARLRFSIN

[5] = Half life in mouse liver microsomes at 1 uM in presence of NADPH by LC-MS method; assay type: ADME
[6] = biological target: T2, Receptor-type tyrosine-protein kinase FLT3 (Homo sapiens, UniProt P36888); assay: Inhibition of FLT3 (unknown origin) by FRET-based homogeneous assay
T2 sequence (P36888 whole entry): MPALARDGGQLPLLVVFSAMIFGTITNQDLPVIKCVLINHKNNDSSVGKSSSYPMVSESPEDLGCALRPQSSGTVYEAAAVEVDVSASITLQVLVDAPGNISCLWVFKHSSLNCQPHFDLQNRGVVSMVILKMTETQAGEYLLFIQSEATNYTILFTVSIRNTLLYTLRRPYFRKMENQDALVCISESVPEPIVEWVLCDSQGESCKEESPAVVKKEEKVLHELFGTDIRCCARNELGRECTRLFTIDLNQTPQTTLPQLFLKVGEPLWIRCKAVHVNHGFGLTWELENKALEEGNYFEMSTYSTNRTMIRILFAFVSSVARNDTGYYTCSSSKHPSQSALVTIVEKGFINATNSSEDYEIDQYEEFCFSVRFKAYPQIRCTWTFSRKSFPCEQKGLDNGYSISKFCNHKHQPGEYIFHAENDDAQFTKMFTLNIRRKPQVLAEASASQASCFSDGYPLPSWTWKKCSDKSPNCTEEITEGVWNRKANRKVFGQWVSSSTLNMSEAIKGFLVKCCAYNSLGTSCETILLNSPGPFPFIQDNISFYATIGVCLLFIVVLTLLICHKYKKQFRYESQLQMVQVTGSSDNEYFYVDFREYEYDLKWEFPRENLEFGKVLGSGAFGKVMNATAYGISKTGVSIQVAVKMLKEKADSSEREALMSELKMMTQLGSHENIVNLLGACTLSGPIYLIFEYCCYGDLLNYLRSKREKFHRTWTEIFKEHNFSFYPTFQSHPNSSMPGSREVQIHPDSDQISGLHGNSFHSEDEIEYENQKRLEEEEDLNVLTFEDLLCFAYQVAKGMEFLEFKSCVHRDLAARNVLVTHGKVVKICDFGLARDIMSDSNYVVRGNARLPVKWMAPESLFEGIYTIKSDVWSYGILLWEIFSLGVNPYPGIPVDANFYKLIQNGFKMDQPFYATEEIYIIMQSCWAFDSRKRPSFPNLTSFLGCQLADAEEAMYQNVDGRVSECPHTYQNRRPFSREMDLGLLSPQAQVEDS

[7] = Aqueous solubility at pH 7.4; assay type: physicochemical; conditions: buffer
Cytochrome P450 2D6 = Cytochrome P450 2D6 (Homo sapiens, UniProt P10635); assay: Inhibition of CYP2D6 (unknown origin) using AMMC substrate after 45 mins by fluorescence assay; assay type: ADME
Chain of Cytochrome P450 2D6 (P10635 whole entry): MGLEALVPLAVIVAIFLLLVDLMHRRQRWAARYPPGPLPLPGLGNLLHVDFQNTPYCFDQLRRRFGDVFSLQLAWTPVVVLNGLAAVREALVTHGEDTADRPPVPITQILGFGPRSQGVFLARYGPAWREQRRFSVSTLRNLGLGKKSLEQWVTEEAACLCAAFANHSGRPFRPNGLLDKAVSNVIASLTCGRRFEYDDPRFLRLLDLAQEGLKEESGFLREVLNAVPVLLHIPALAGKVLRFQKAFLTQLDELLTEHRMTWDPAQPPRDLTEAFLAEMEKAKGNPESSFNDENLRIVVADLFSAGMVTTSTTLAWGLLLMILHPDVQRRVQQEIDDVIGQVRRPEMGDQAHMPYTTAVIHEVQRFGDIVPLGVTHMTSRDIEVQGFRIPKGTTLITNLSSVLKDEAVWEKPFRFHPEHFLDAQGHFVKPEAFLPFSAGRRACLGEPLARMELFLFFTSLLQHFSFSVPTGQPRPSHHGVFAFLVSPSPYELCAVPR

Cytochrome P450 2C9 = Cytochrome P450 2C9 (Homo sapiens, UniProt P11712); assay: Inhibition of CYP2C9 (unknown origin) using MFC substrate after 45 mins by fluorescence assay; assay type: ADME
Chain of Cytochrome P450 2C9 (P11712 whole entry): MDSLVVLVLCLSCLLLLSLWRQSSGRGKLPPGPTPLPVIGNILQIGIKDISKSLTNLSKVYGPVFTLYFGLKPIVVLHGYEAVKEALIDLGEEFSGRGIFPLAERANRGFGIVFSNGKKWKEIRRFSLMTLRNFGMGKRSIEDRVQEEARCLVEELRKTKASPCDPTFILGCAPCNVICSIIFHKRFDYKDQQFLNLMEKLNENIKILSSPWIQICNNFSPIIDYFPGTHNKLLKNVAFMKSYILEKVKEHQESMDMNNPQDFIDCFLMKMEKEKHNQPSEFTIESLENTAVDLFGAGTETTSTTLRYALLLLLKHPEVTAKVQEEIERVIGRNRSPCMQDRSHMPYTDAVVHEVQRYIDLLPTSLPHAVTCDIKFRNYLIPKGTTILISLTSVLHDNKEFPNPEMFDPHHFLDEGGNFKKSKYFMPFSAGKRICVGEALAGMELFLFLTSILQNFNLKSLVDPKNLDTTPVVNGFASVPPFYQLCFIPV

MDA-MB-468 = assay: Cytotoxicity against human MDA-MB-468 cells after 5 days by SRB assay; assay type: functional; conditions: MDA-MB-468, 120 h
[8] = AUC in SCID mouse at 50 mg/kg, ip after 8 hrs by LCMS/MS method; assay type: ADME, organism-based; set-up: time < 8 hr, dose 50 mg/kg, route intraperitoneal; conditions: plasma
MDA-MB-231 = assay: Cytotoxicity against human MDA-MB-231 cells after 5 days by SRB assay; assay type: functional; conditions: MDA-MB-231, 120 h
[9] = Cytotoxicity against human SKBR3 cells after 5 days by SRB assay; assay type: functional; conditions: SK-BR-3, 120 h
[10] = Cmax in SCID mouse at 25 mg/kg, po by LCMS/MS method; assay type: ADME, organism-based; set-up: dose 25 mg/kg, route oral; conditions: in vivo
[11] = AUC in SCID mouse at 25 mg/kg, po by LCMS/MS method; assay type: ADME, organism-based; set-up: dose 25 mg/kg, route oral; conditions: plasma

Chain of Cytochrome P450 3A4 (P08684 whole entry): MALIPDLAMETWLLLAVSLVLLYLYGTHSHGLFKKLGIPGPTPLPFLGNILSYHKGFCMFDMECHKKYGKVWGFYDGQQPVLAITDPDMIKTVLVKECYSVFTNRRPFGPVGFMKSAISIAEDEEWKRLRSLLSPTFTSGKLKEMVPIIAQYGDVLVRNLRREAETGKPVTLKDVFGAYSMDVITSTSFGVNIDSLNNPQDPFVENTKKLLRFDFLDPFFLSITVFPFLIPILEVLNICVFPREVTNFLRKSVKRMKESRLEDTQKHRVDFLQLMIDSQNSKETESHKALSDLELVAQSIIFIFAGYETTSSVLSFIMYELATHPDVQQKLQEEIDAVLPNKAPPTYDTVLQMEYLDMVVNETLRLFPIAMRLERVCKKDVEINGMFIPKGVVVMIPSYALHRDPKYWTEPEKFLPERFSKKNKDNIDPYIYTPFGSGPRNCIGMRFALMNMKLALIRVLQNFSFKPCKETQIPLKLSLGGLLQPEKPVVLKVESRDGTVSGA

| Compound | half-life at 1 µM [1] | IC50 (Cytochrome P450 3A4) | Cmax [2] | fraction unbound [3] | GI50 (MCF7) | IC50 [4] | IC50 (Cytochrome P450 2C19) | IC50 (Cytochrome P450 1A2) | half-life at 1 µM [5] | IC50 [6] | solubility [7] | IC50 (Cytochrome P450 2D6) | IC50 (Cytochrome P450 2C9) | GI50 (MDA-MB-468) | AUC at 8 h [8] | GI50 (MDA-MB-231) | GI50 [9] | Cmax [10] | AUC [11] |
| --- | --- | --- | --- | --- | --- | --- | --- | --- | --- | --- | --- | --- | --- | --- | --- | --- | --- | --- | --- |
| O=C1Nc2ccccc2/C1=C/c1ccc2cn[nH]c2c1 | 54 min | 10000 nM | 11 ng/mL | < 0.001 | 5300 nM | 2500 nM | 210 nM | 50 nM | 5 min | 140 nM | 0.7 µg/mL (≈ 2.68 µM) | > 1000 nM | 500 nM | 4600 nM | 61 ng·h/mL | – | – | – | – |
| Cc1ccc(/C=C/c2n[nH]c3cc([C@@H]4C[C@@]45C(=O)Nc4ccccc45)ccc23)cn1 | – | – | – | – | 280 nM | – | – | – | – | – | – | – | – | 140 nM | – | 3800 nM | 7600 nM | – | – |
| O=C1Nc2ccc(F)cc2[C@]12C[C@H]2c1ccc2c(/C=C/c3ccc(CN4CCOCC4)cc3)n[nH]c2c1 | – | > 1000 nM | – | – | 900 nM | – | 1000 nM | > 10000 nM | – | – | – | > 10000 nM | 500 nM | 20 nM | – | 720 nM | 10000 nM | 3700 ng/mL | 7940 ng·h/mL |
| COc1ccc2c(c1)[C@]1(C[C@H]1c1ccc3c(/C=C/c4ccc(N5CCN(C)CC5)nc4)n[nH]c3c1)C(=O)N2 (relative stereo) | 16 min | 2100 nM | 200 ng/mL | – | 10 nM | 2000 nM | 1600 nM | > 10000 nM | 9 min | – | 0.19 µg/mL (≈ 0.375 µM) | > 10000 nM | 1600 nM | 6 nM | 450 ng·h/mL | 10 nM | 13400 nM | – | – |
| O=C1Nc2ccccc2[C@]12C[C@H]2c1ccc2c(/C=C/c3cccnc3)n[nH]c2c1 (relative stereo) | – | > 1000 nM | – | – | 3600 nM | – | 110 nM | 140 nM | – | – | – | > 1000 nM | 320 nM | 9 nM | – | 50000 nM | 14700 nM | 37 ng/mL | 93 ng·h/mL |
| Cc1ccc(/C=C/c2n[nH]c3cc([C@@H]4C[C@@]45C(=O)Nc4ccccc45)ccc23)c(C)n1 (relative stereo) | – | – | – | – | 6800 nM | 2100 nM | – | – | – | 59 nM | – | – | – | 70 nM | – | > 50000 nM | 50000 nM | – | – |
| O=C1Nc2ccccc2[C@]12C[C@H]2c1ccc2c(/C=C/c3ccc(CN4CCCCC4)nc3)n[nH]c2c1 (relative stereo) | – | – | – | – | 0.01 nM | – | – | – | – | – | – | – | – | 0.4 nM | – | 35800 nM | 3400 nM | – | – |
| COc1ccc2c(c1)[C@]1(C[C@H]1c1ccc3c(/C=C/c4ccc(CN5CCCCC5)nc4)n[nH]c3c1)C(=O)N2 (relative stereo) | – | – | – | – | 0.01 nM | – | 600 nM | – | – | – | – | – | 1400 nM | 0.02 nM | – | 3900 nM | 9200 nM | 290 ng/mL | 740 ng·h/mL |
| CN(C)Cc1ccc(/C=C/c2n[nH]c3cc([C@@H]4C[C@@]45C(=O)Nc4ccc(OC(F)F)cc45)ccc23)cc1 (relative stereo) | – | – | – | – | 25 nM | 4900 nM | – | – | – | 32 nM | – | – | – | 5 nM | – | 4800 nM | 1600 nM | – | – |
| CN(C)Cc1ccc(/C=C/c2n[nH]c3cc([C@@H]4C[C@@]45C(=O)Nc4ccc(Cl)cc45)ccc23)cc1 (relative stereo) | – | – | – | – | 0.01 nM | – | – | – | – | – | – | – | – | 0.06 nM | – | 930 nM | 3500 nM | – | – |

Source: ChEMBL document CHEMBL3351767, “The discovery of Polo-like kinase 4 inhibitors: design and optimization of spiro[cyclopropane-1,3'[3H]indol]-2'(1'H).ones as orally bioavailable antitumor agents” (J Med Chem, 2015)
